# Test results taken from PubChem BioAssay AID2060505 (Molecular Pharmacology Branch, DTP, NCI, 2025).
# pIC50: −log10 of the molar value.
# Tested on: 633275-114-R-J1-PDC complex spheroids, viability
# Assay: Anticancer human tumor 633275-114-R-J1-PDC patient-derived endometrial adenocarcinoma cell line growth inhibition [GQUAD]
# Settings: for pIC50: curve of first compound; for viability, T/C: stronger effect = lower value
# Excerpt: DNA G-quadruplex Stabilizer Agents in Combinations in Complex Spheroids
# A high-throughput screen of multi-cell type tumor spheroids was designed to identify active combinations of DNA G-quadruplex stabilizer agents and targeted small molecules. Complex spheroids include a stromal component modeled by human endothelial cells (HUVEC) and fibroblasts modeled by human mesenchymal stem cells (MSCs). The concentration ranges selected for each drug and investigational agent were based upon clinically achievable concentrations if the clinical Cmax of the agent was known.
# Compounds. The drugs and investigational agents: pidnarulex (CX-5461; NSC782164), APTO-253 (NSC789042), BRACO-19 (NSC847499), peposertib (NSC802822), ceralasertib (NSC780249), elimusertib (NSC800525), camonsertib (NSC841442), AZD-1390 (NSC803789), olaparib (NSC753686), talazoparib (NSC767125), ART-558 (NSC835418), sotorasib (NSC818433), MRTX-1133 (NSC836407), SN-38 (NSC673596), topotecan (NSC609699), etoposide (NSC141540), doxorubicin (NSC123127), gemcitabine (NSC613327), 5-fluorouracil (NSC19893), paclitaxel (NSC125973), vemurafenib (NSC761431), panobinostat (NSC761190), R-306465 (JNJ-16241199; NSC773264), adavosertib (NSC754352), TP-3654 (NSC805149), carboplatin (NSC241240), KSQ-4279 (NSC840948), and staurosporine (NSC755774) were obtained from the National Cancer Institute (NCI) Developmental Therapeutics Program Chemical Repository (34). The FDA-approved anticancer drug set is available from the NCI Developmental Therapeutics Program. […] The stock solutions were prepared in dimethyl sulfoxide (DMSO, Sigma-Aldrich, St. Louis, MO, cat. D2650) at 800-fold the tested concentration and stored at -70 degrees C prior to their use. All drugs and investigational agents were tested over a range starting from a high concentration at or near the clinical Cmax and decreasing in half-log increments. If the clinical Cmax for an agent had not been determined, the highest concentration tested was 10 microM.
# 2.3 Cell Culture. All cells were maintained in an incubator at 37 degrees C and 5% CO2 with 95% humidity. The PDC lines were cultured according to standard operating procedures established by the NCI PDMR. All PDCs were thawed and cultured in Matrigel-coated flasks prepared with a working solution of 1X Ham's F-12 nutrient mix, without supplementation (Invitrogen, cat. 11765054), 100 U/mL penicillin-streptomycin (Invitrogen, cat. 15140122), and 2.5% Matrigel (Corning Inc., cat. 354248) for the first three passages. The 857933-349-R-J2-PDC line was cultured in 6C/Colon 1B media, which includes advanced DMEM/F-12 (Thermo Fisher Scientific, cat. 12634028), 10 mM HEPES (Thermo Fisher Scientific, cat. 15630080), 1X GlutaMAX supplement (Thermo Fisher Scientific, cat. 35050061), 0.1 mg/mL primocin (InvivoGen, cat. ant-pm-2), 10% defined fetal bovine serum, heat inactivated (HyClone Laboratories Inc., cat. SH30070.03HI), 50% L-WRN conditioned media (ATCC, cat. CRL-3276), 1.25 mM N-Acetyl-L-cysteine (Sigma-Aldrich, cat. A9165), 10 mM nicotinamide (Sigma-Aldrich, cat. N0636), 1X B-27 supplement (Thermo Fisher Scientific, cat. 17504044), 1X N-2 supplement (Thermo Fisher Scientific, cat. 17502048), 10 microM Y-27632 dihydrochloride (Tocris Bioscience, cat. 1254), and 50 ng/mL human EGF recombinant protein (Thermo Fisher Scientific, cat. PHG0311). The 485176-168-R4-J1-PDC line was cultured in Panc media, which includes all 6C/Colon 1B media components plus 100 ng/mL human FGF-10 (Thermo Fisher Scientific, cat. 100-26), 500 nM SB-431542 (Selleckchem, cat. S1067), and gastrin (Tocris, cat. 3006).
# […]
# 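Also: spheroids exposed to the agents for seven days.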
# 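For viability, T/C in this document: percent of DMSO vehicle control viability which is 100%.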
structure (smiles),measurement,setting,value
CC[C@@]1(O)C(=O)OCc2c1cc1n(c2=O)Cc2cc3c(CN(C)C)c(O)ccc3nc2-1 + CN(C)c1ccc(Nc2c3ccc(NC(=O)CCN4CCCC4)cc3nc3cc(NC(=O)CCN4CCCC4)ccc23)cc1,pIC50,second compound 0.0316 µM,7.15
same,pIC50,second compound 0.1 µM,7.14
same,pIC50,second compound 0.316 µM,7.09
same,pIC50,second compound 1 µM,7.24
same,pIC50,second compound 3.16 µM,7.32
same,pIC50,second compound 10 µM,> 9.00
same,"viability, T/C","second compound 0.0316 µM, first compound 0.000999 µM",96.1%
same,"viability, T/C","second compound 0.0316 µM, first compound 0.00316 µM",105%
same,"viability, T/C","second compound 0.0316 µM, first compound 0.00999 µM",98.3%
same,"viability, T/C","second compound 0.0316 µM, first compound 0.0316 µM",75.2%
same,"viability, T/C","second compound 0.0316 µM, first compound 0.0999 µM",39.7%
same,"viability, T/C","second compound 0.0316 µM, first compound 0.316 µM",35.9%
same,"viability, T/C","second compound 0.1 µM, first compound 0.000999 µM",93.4%
same,"viability, T/C","second compound 0.1 µM, first compound 0.00316 µM",101%
same,"viability, T/C","second compound 0.1 µM, first compound 0.00999 µM",99%
same,"viability, T/C","second compound 0.1 µM, first compound 0.0316 µM",74.1%
same,"viability, T/C","second compound 0.1 µM, first compound 0.0999 µM",42%
same,"viability, T/C","second compound 0.1 µM, first compound 0.316 µM",36%
same,"viability, T/C","second compound 0.316 µM, first compound 0.000999 µM",101%
same,"viability, T/C","second compound 0.316 µM, first compound 0.00316 µM",104%
same,"viability, T/C","second compound 0.316 µM, first compound 0.00999 µM",85.5%
same,"viability, T/C","second compound 0.316 µM, first compound 0.0316 µM",72.9%
same,"viability, T/C","second compound 0.316 µM, first compound 0.0999 µM",42.6%
same,"viability, T/C","second compound 0.316 µM, first compound 0.316 µM",36.3%
same,"viability, T/C","second compound 1 µM, first compound 0.000999 µM",98%
same,"viability, T/C","second compound 1 µM, first compound 0.00316 µM",88.6%
same,"viability, T/C","second compound 1 µM, first compound 0.00999 µM",91.2%
same,"viability, T/C","second compound 1 µM, first compound 0.0316 µM",64.8%
same,"viability, T/C","second compound 1 µM, first compound 0.0999 µM",36.7%
same,"viability, T/C","second compound 1 µM, first compound 0.316 µM",35%
same,"viability, T/C","second compound 3.16 µM, first compound 0.000999 µM",82.3%
same,"viability, T/C","second compound 3.16 µM, first compound 0.00316 µM",82%
same,"viability, T/C","second compound 3.16 µM, first compound 0.00999 µM",80.7%
same,"viability, T/C","second compound 3.16 µM, first compound 0.0316 µM",54%
same,"viability, T/C","second compound 3.16 µM, first compound 0.0999 µM",40.6%
same,"viability, T/C","second compound 3.16 µM, first compound 0.316 µM",27%
same,"viability, T/C","second compound 10 µM, first compound 0.000999 µM",35.2%
same,"viability, T/C","second compound 10 µM, first compound 0.00316 µM",41.3%
same,"viability, T/C","second compound 10 µM, first compound 0.00999 µM",28.8%
same,"viability, T/C","second compound 10 µM, first compound 0.0316 µM",26.5%
same,"viability, T/C","second compound 10 µM, first compound 0.0999 µM",15.3%
same,"viability, T/C","second compound 10 µM, first compound 0.316 µM",13.7%
